Laboratory results: the supplement of paper PMC11962398

Columns and labels:
BI-2493 [1] = compound: T1, C[C@H]1CNCCN1c1nccc(-c2noc3c2CCC[C@@]32CCCc3sc(N)c(C#N)c32)n1 [BI-2493]; conditions: 5 days
Experimental: (§1)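 PRISM pooled barcoded cancer cell line viability screen (Broad Institute) with BI-2493 at 8 doses in threefold dilutions from 0.00457 to 10 µmol/L, 5-day treatment; curves fitted per cell line. IC50 is undefined (placeholder) for resistant lines. AUC is capped at 1, and sensitivity is reported as 1 − AUC.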

BI-2493 [2] = compound: T1, BI-2493; test: 1 - AUC of viability dose-response curve (sensitivity) (fraction); higher = more sensitive; conditions: 5 days
Experimental: as §1

Test System	IC50 of cell viability (BI-2493 [1]) [µM]	1 - AUC of viability dose-response curve (BI-2493 [2])
HS611T_HAEMATOPOIETIC_AND_LYMPHOID_TISSUE	> 10	< 0
HS683_CENTRAL_NERVOUS_SYSTEM	9.89	0.0105
HS729_SOFT_TISSUE	8.7	0.101
HS766T_PANCREAS	6.84	0.108
HS852T_SKIN	9.99	0.00841
HS939T_SKIN	8.03	0.0542
HS944T_SKIN	3.82	0.103
HSC1_SKIN	4.81	0.111
HSC2_UPPER_AERODIGESTIVE_TRACT	3.64	0.169
HSC3_UPPER_AERODIGESTIVE_TRACT	5.44	0.138
HSC5_SKIN	5.05	0.126
HSKTC_OVARY	4.41	0.166
HT3_CERVIX	5.97	0.17
HT29_LARGE_INTESTINE	5.08	0.15
HT55_LARGE_INTESTINE	4.03	0.195
HT115_LARGE_INTESTINE	2.29	0.229
HT144_SKIN	5.71	0.091
HT1080_SOFT_TISSUE	3.19	0.209
HT1197_URINARY_TRACT	4.69	0.0777
HT1376_URINARY_TRACT	5.68	0.175
HTMMT_ENDOMETRIUM	5.79	0.0985
HT_HAEMATOPOIETIC_AND_LYMPHOID_TISSUE	6.79	0.104
HUG1N_STOMACH	0.544	0.393
HUH1_LIVER	4.85	0.0866
HUH6_LIVER	6.78	0.0714

Test System	IC50 of cell viability (BI-2493 [1]) [µM]	1 - AUC of viability dose-response curve (BI-2493 [2])
HUH7_LIVER	8.94	0.0355
HUH28_BILIARY_TRACT	9.21	0.0149
HUO9_BONE	9.56	0.0106
HUPT3_PANCREAS	5.16	0.182
HUPT4_PANCREAS	3.9	0.147
IALM_LUNG	1.56	0.317
ICC4_BILIARY_TRACT	3.75	0.184
ICC8_BILIARY_TRACT	7.67	0.185
ICC9_BILIARY_TRACT	4.52	0.225
ICC10_BILIARY_TRACT	9.23	0.0142
ICC12_BILIARY_TRACT	4.21	0.0946
ICC137_BILIARY_TRACT	7.76	0.116
IGR1_SKIN	7.02	0.0813
IGR37_SKIN	8.82	0.111
IGR39_SKIN	5.87	0.0609
IGROV1_OVARY	8.03	0.205
IHH4_THYROID	7.16	0.0625
IM95_STOMACH	4.31	0.152
IPC298_SKIN	4.47	0.0978
ISHIKAWAHERAKLIO02ER_ENDOMETRIUM	6.65	0.174
ISTMES1_PLEURA	8.84	0.0873
J82_URINARY_TRACT	5.23	0.122
JAR_PLACENTA	3.54	0.242
JEKO1_HAEMATOPOIETIC_AND_LYMPHOID_TISSUE	5.06	0.0886
JHH4_LIVER	6.96	0.071

Test System	IC50 of cell viability (BI-2493 [1]) [µM]	1 - AUC of viability dose-response curve (BI-2493 [2])
JHH5_LIVER	0.387	0.297
JHH6_LIVER	4.43	0.0848
JHH7_LIVER	1.67	0.27
JHOC5_OVARY	5.69	0.139
JHOM1_OVARY	4.83	0.119
JHOS2_OVARY	9.64	0.0182
JHUEM7_ENDOMETRIUM	5.02	0.101
JIMT1_BREAST	5.98	0.115
JL1_PLEURA	> 10	0.13
JMSU1_URINARY_TRACT	> 10	0.00212
JOPACA1_PANCREAS	4.96	0.107
JR_SOFT_TISSUE	1.44	0.275
JURLMK1_HAEMATOPOIETIC_AND_LYMPHOID_TISSUE	3.42	0.169
JVM3_HAEMATOPOIETIC_AND_LYMPHOID_TISSUE	9.45	0.105
K029AX_SKIN	7.21	0.058
K562_HAEMATOPOIETIC_AND_LYMPHOID_TISSUE	7.18	0.0609
KALS1_CENTRAL_NERVOUS_SYSTEM	9.22	0.0195
KARPAS620_HAEMATOPOIETIC_AND_LYMPHOID_TISSUE	0.866	0.326
KARPAS1718_HAEMATOPOIETIC_AND_LYMPHOID_TISSUE	4.87	0.0894
KATOIII_STOMACH	4.3	0.183
KCL22_HAEMATOPOIETIC_AND_LYMPHOID_TISSUE	6.3	0.193
KD_SOFT_TISSUE	3.6	0.114
KE37_HAEMATOPOIETIC_AND_LYMPHOID_TISSUE	6.5	0.0832
KE39_STOMACH	1.55	0.351
